Laboratory results from ChEMBL document CHEMBL1201862, “PubChem BioAssay data set” (2004).
Structures can show the parent of a compound that is named as a salt. Activity calls are given as the source filed them.

What was measured:
[1] = molecular target: Sphingosine 1-phosphate receptor 2 (Homo sapiens, UniProt O95136); assay: Dose Response Cell Based Assay for Antagonists of the S1P2 Receptor. [Related pubchem assays: 856, 736 ]; format: functional
[2] = molecular target: Galanin receptor type 2 (Homo sapiens, UniProt O43603); assay: Dose Response cell-based high-throughput screening assay to identify antagonists of galanin receptor 2 (GALR2). [Related pubchem assays: 828, 866 ]; format: functional
[3] = molecular target: T1, Short transient receptor potential channel 4 (Mus musculus, UniProt Q9QUQ5); assay: calcium entry via TRPC4 opening agents – cell-based, HEK293 TRPC4/mu-opioid, Fluo-4 calcium, dose response (AID 434937); format: functional
T1 sequence (Q9QUQ5 whole entry): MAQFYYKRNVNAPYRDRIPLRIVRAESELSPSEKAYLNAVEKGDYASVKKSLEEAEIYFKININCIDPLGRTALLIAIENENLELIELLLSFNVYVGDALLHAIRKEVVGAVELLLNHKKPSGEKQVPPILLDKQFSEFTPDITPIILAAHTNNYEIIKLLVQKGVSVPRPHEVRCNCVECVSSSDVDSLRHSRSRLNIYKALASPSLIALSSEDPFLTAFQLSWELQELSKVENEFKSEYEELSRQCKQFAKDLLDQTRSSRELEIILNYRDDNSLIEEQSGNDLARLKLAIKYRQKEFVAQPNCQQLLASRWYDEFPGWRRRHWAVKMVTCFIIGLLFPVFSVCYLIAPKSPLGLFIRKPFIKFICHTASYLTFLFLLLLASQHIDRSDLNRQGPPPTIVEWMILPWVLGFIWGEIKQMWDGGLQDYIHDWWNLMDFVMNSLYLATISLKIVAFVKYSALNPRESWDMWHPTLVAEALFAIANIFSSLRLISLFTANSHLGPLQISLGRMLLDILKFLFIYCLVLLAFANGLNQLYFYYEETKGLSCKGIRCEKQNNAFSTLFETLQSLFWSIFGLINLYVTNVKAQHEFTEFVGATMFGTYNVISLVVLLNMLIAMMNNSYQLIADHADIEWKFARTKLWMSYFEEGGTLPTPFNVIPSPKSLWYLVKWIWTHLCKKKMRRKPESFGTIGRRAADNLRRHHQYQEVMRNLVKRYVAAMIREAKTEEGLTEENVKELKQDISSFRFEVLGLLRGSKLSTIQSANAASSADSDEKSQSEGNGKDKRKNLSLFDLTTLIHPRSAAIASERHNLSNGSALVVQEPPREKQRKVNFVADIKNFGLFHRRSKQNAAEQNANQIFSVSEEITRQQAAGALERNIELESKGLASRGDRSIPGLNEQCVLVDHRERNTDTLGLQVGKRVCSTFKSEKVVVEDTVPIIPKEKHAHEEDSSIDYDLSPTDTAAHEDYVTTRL

[4] = molecular target: T2, Heat shock factor protein 1 (Mus musculus, UniProt P38532); assay: enhancement of HSF1-driven luciferase signal – cell-based, NIH3T3, luminescence, dose retest, confirmation (AID 435004); format: functional;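 note: stress induced by proteasome inhibitor MG132 added 30 min after compound; luciferase reporter driven by HSF1 response element in NIH3T3 cells; actives raise luminescence as potentiators of the MG132 stress response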
T2 sequence (P38532 whole entry): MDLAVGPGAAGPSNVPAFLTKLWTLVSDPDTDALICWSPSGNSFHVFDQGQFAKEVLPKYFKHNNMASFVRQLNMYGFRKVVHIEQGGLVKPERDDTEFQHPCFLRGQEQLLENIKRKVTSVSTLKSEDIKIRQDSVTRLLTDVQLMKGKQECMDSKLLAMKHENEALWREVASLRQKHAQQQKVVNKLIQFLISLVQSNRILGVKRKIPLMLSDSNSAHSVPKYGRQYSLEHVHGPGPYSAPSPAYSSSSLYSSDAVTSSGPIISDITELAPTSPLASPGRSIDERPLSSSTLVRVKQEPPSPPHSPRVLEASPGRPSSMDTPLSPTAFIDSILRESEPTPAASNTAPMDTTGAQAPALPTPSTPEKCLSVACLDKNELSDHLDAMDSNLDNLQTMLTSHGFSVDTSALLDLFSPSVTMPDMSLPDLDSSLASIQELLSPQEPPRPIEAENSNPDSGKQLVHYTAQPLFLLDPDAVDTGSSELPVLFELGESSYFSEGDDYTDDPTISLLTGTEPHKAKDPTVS

[5] = tested on: INS1; assay: INS-1E survival protection against cytokine death – cell-based, luminescence, retest, dose response (AID 449756); format: functional; settings: Rattus norvegicus;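 note: cell death triggered by IL-1 beta plus TNF-alpha plus IFN-gamma mixture; protective hits raise ATP signal compared with cytokine alone wells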
[6] = reduction of Shn3 3'UTR-driven luciferase in osteoblasts – cell-based, Clone20 osteoblasts, firefly luciferase, cherry-picked, dose response (AID 624132); format: functional;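 note: firefly luciferase luminescence from reporter carrying the Shn3 3'UTR in osteoblasts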
[7] = loss of viability in HepG2 cells – cell-based, CellTiter-Glo, cherry-picked, cytotoxicity control for Shn3 inhibitor project, dose response (AID 624134); format: functional
[8] = non-specific 3'UTR reporter inhibition in Clone20-Shn3RL – cell-based, Renilla luciferase, cherry-picked, counter-screen for Shn3 inhibitor project, dose response (AID 624133); format: functional
[9] = molecular target: Cytochrome P450 2C9 (Homo sapiens, UniProt P11712)
[10] = molecular target: Aryl hydrocarbon receptor (Homo sapiens, UniProt P35869); assay: Luminescence-based cell-based high throughput dose response assay for activators of the Aryl Hydrocarbon Receptor (AHR). [Related pubchem assays: 2796 (Primary screen (AHR activators in singlicate)), 2845 (Confirmation screen (AHR activators in triplicate)), 434939 (Counterscreen (PXR activators in triplicate)), 2804 (Summary (AHR activators))]; format: ADME
[11] = molecular target: T3, Dual specificity protein phosphatase 6 (Rattus norvegicus, UniProt Q64346); assay: inhibition of rat DUSP6 enzyme activity – biochemical, in vitro, primary screen (AID 425)
T3 sequence (Q64346 whole entry): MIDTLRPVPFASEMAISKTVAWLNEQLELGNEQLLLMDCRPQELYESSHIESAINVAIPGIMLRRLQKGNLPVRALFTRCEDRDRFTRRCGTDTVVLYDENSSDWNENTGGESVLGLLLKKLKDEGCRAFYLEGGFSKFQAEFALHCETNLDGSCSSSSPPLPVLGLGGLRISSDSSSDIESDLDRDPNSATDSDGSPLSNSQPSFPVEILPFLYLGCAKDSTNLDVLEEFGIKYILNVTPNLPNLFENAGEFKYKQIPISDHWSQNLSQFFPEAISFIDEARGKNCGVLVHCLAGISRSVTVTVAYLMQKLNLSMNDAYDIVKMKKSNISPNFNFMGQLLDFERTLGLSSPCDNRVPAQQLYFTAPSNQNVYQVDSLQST

[12] = tested on: Streptococcus sp. 'group A'; assay: Streptococcus pyogenes SK(-)GAS viability under kanamycin – luminescence, BacTiterGlo, confirmation, counter-screen for streptokinase expression inhibitor project, dose response (AID 1900); format: functional, organism-based
[13] = molecular target: 14-3-3 protein gamma (Homo sapiens, UniProt P61981); assay: modulators of 14-3-3 gamma client binding – dose response (AID 711); format: functional
[14] = tested on: Streptococcus; assay: GAS UMAA2166 growth inhibition – luminescence, BacTiterGlo, counter-screen for streptokinase expression inhibitor project, dose response (AID 1915); format: functional, organism-based;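 note: potency for reduction of bacterial viability or growth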
[15] = tested on: HeLa; assay: viability loss in HeLa cells – cell-based, 24 h, cherry-picked samples, cytotoxicity control, dose response (AID 504726); format: functional; settings: Homo sapiens;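 note: potency for cytotoxicity as loss of luminescence signal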
[16] = molecular target: T4, ORF 73 (Human herpesvirus 8, UniProt O40947); assay: KSHV LANA DNA-binding disruption – biochemical, fluorescence polarization, cherry-picked samples, dose response (AID 504725); design: species or system Human gammaherpesvirus 8;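 note: fluorescence polarization of a labeled DNA duplex reporting LANA DNA binding; potency is for inhibitors that block LANA binding to the DNA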
T4 sequence (O40947 whole entry): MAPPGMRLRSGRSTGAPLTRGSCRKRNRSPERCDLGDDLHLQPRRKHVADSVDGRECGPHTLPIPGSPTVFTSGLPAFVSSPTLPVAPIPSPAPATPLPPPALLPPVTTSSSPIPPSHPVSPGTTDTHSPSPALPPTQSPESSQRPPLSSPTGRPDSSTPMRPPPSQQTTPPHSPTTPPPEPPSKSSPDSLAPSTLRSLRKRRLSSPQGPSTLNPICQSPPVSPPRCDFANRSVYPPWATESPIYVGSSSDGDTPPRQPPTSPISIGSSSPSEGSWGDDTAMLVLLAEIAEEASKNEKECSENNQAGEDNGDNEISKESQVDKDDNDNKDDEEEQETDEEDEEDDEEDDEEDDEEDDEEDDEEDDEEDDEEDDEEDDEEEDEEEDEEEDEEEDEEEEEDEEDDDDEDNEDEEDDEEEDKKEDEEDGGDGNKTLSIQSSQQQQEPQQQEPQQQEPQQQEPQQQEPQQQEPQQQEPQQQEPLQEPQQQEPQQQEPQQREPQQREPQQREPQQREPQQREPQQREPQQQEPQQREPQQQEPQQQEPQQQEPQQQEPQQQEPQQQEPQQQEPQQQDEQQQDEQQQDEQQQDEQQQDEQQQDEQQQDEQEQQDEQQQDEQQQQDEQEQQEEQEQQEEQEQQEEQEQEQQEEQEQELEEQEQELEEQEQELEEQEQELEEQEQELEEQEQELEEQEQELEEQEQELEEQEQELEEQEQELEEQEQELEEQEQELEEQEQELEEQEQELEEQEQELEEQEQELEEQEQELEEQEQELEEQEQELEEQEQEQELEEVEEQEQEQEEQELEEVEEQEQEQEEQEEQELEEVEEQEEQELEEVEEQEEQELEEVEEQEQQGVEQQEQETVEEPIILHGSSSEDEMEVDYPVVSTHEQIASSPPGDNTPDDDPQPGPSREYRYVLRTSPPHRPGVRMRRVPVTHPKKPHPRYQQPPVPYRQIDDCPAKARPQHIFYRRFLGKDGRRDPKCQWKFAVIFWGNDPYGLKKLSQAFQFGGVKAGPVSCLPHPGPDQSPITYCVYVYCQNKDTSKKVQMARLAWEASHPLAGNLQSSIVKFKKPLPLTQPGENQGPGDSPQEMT

[17] = HEK-293T viability loss, compound-treated – cell-based, uHTS hits, cytotoxicity control for B/T-cell NF-kB inhibitor project, dose response (AID 489019); format: functional;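 note: IC50 reflects cytotoxicity as loss of cell viability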
[18] = molecular target: UDP-galactopyranose mutase (Mycobacterium tuberculosis, UniProt P9WIQ1); assay: Inhibitors of Mycobacterium tuberculosis UDP-galactopyranose mutase (UGM) enzyme Measured in Biochemical System Using Plate Reader - 2105-02_Inhibitor_Dose_CherryPick_Activity. [Related pubchem assays (depositor defined):AID504439]
[19] = molecular target: T5, Apoptotic protease-activating factor 1 (Homo sapiens, UniProt O14727); format: functional
T5 sequence (O14727 whole entry): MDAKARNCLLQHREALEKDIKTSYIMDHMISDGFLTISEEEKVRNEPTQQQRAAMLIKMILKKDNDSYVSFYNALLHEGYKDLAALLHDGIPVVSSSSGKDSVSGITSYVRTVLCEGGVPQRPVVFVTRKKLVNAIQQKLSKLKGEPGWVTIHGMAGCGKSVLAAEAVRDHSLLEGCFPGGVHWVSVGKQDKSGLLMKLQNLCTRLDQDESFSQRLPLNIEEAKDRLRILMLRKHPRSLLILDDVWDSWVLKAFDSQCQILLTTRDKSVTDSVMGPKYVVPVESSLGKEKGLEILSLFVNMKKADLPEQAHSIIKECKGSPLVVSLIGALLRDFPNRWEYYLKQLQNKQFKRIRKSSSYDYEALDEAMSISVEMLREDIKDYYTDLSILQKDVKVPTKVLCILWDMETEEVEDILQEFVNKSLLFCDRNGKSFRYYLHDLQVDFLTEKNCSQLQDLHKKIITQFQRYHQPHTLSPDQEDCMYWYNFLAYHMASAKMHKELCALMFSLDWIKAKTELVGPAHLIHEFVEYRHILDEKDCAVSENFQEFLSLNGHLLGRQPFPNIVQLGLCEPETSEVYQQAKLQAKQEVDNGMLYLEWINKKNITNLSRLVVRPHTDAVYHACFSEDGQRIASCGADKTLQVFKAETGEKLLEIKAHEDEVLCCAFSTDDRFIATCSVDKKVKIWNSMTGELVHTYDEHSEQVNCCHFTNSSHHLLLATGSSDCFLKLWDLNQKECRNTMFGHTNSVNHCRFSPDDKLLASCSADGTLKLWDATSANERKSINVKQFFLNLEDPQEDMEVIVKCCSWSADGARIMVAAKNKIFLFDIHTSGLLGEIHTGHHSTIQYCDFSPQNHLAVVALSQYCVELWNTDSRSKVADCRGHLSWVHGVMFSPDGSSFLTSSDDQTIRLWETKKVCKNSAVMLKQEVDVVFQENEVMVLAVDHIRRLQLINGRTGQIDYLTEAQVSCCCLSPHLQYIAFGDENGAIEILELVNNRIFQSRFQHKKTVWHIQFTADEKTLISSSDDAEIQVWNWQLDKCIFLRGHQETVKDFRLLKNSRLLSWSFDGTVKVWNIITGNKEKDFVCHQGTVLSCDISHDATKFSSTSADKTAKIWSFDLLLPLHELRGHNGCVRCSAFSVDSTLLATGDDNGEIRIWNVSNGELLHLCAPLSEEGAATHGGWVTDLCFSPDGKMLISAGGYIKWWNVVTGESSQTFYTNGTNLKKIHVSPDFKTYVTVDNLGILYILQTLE

[20] = molecular target: Keap1/Nrf2 (Homo sapiens, UniProt Q14145); assay: disruptors of Keap1 binding to Nrf2 peptide – biochemical, fluorescence polarization, cherry-picked samples, dose response (AID 588683)
[21] = tested on: BJ; assay: growth inhibition of engineered Ras-driven BJ cells – cell-based, alamar blue fluorescence, cherrypicked samples, dose response (AID 2631); format: functional; settings: Homo sapiens;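 note: confirmatory dose-response assay in RAS-dependent BJ fibroblasts engineered with TERT, LT and ST, with cytotoxicity read by fluorescence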
[22] = molecular target: Protein S100-A4 (Homo sapiens, UniProt P26447); assay: human S100A4 peptide interaction inhibition curves – biochemical, fluorescence polarization, cherry-picked hits, dose response (AID 687001); format: functional
Sequence of Protein S100-A4 (P26447 whole entry): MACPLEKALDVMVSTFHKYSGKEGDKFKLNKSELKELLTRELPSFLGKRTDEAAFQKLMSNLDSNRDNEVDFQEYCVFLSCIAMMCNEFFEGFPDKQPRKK

Sequence of Sphingosine 1-phosphate receptor 2 (O95136 whole entry): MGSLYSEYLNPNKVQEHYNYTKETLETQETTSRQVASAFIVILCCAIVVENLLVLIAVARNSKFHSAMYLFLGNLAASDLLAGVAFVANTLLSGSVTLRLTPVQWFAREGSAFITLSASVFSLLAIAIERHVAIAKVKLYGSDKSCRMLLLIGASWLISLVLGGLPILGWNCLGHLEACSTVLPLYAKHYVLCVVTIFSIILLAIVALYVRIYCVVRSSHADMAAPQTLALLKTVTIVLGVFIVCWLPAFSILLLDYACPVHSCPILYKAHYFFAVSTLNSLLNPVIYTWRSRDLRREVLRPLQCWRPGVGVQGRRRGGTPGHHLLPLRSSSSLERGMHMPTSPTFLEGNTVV
Sequence of Keap1/Nrf2 (Q16236 whole entry): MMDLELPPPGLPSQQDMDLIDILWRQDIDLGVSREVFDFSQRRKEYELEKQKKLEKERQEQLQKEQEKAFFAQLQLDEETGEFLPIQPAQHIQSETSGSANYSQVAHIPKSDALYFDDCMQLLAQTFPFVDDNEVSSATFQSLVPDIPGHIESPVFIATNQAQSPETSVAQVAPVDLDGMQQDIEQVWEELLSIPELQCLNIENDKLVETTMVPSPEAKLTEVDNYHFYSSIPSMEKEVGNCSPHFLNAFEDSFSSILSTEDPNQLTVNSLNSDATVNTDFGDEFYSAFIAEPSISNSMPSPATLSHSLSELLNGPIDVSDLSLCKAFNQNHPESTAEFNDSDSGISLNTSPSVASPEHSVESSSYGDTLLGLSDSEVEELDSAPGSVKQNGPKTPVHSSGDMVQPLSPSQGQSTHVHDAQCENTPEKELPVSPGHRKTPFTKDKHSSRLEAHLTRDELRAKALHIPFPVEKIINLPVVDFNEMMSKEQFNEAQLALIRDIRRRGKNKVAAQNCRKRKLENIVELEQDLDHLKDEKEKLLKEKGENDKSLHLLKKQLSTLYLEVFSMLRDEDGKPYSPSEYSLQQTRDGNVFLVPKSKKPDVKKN
Sequence of Keap1/Nrf2 (Q14145 whole entry): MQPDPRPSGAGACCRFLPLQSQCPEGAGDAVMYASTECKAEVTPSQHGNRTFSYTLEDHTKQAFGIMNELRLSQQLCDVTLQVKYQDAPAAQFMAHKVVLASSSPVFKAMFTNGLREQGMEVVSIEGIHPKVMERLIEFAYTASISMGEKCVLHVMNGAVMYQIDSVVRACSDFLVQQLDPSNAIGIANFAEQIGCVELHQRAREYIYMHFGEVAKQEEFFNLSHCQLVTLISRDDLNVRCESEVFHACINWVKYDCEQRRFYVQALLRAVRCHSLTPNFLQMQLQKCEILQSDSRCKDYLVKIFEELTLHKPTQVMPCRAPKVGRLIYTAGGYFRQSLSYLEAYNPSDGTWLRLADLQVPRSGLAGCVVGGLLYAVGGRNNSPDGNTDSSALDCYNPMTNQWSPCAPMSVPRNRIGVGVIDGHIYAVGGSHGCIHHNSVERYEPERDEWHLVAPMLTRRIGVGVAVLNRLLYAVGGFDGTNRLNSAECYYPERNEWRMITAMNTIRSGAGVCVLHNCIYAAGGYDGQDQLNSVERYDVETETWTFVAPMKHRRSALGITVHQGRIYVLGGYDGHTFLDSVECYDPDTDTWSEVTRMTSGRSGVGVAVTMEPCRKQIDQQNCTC
Sequence of Galanin receptor type 2 (O43603 whole entry): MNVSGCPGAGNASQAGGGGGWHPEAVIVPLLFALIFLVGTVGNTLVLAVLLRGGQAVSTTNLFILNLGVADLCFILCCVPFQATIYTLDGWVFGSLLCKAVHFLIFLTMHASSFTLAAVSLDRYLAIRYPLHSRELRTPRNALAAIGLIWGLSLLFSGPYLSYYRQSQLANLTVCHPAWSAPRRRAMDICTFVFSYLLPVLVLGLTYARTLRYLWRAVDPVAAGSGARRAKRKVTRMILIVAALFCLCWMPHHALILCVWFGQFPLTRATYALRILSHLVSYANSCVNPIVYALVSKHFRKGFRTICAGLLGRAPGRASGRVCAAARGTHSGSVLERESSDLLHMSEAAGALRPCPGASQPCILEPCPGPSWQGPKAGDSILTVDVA
Sequence of UDP-galactopyranose mutase (P9WIQ1 whole entry): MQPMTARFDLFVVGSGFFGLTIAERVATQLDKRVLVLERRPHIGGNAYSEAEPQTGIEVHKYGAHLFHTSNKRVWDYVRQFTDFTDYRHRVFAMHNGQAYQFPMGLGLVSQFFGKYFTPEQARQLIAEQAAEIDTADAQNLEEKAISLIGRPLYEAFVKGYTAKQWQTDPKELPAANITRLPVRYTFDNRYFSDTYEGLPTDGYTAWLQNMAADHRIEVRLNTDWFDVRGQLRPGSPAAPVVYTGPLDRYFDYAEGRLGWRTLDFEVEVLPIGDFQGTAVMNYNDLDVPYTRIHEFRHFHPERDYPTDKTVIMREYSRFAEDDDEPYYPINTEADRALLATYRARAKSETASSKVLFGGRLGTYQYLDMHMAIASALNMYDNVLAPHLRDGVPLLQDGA
Sequence of 14-3-3 protein gamma (P61981 whole entry): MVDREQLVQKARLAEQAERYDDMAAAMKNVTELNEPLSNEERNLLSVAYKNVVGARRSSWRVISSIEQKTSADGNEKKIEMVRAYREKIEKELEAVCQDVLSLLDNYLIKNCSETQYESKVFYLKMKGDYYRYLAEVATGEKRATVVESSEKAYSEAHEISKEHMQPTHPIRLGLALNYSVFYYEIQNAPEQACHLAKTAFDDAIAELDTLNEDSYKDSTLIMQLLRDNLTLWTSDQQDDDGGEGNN
Sequence of Aryl hydrocarbon receptor (P35869 whole entry): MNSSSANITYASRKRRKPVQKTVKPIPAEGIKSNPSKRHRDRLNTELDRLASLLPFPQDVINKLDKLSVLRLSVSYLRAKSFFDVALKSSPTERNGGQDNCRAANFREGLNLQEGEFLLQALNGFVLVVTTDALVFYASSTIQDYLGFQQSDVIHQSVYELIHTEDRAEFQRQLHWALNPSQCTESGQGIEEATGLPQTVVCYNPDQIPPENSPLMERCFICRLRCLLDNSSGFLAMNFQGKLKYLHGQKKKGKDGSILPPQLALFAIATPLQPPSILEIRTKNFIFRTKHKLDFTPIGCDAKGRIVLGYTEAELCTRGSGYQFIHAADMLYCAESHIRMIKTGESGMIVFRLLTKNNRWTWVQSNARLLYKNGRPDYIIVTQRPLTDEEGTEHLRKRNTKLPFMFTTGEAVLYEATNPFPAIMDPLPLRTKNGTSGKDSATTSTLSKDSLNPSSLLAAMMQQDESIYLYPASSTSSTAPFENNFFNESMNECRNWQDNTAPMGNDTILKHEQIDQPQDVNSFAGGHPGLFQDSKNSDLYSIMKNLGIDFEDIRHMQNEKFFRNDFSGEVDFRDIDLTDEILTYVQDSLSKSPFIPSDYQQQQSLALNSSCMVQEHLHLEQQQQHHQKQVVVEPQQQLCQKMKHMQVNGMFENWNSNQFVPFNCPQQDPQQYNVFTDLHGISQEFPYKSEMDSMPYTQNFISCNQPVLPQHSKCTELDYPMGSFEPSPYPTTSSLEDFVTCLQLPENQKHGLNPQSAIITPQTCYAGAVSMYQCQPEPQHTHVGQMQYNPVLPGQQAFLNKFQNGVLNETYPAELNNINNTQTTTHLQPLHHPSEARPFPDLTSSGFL
Sequence of Cytochrome P450 2C9 (P11712 whole entry): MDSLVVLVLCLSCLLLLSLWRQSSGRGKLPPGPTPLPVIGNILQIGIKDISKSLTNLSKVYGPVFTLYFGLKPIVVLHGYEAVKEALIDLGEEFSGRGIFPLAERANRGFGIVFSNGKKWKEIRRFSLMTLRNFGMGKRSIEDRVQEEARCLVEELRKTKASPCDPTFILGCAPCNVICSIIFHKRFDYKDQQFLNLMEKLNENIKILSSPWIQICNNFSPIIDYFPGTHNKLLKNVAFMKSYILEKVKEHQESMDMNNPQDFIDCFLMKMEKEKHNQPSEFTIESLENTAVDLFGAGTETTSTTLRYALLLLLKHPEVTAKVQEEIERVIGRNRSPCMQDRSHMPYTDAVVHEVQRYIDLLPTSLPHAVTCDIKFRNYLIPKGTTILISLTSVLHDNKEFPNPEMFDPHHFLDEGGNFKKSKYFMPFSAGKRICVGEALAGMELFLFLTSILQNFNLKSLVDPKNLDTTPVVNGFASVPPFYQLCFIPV

## Cc1ccc2[nH]c3c(N4CCc5ccccc5C4)ncnc3c2c1
[1]
  IC50: 3.63 µM (active)
[2]
  IC50: > 42 µM (not active)
[3]
  EC50: 5.96 µM (active)
[4]
  EC50: 103 µM (active)
[5]
  AC50: 1.38 µM (active)
[6]
  AC50: 1.18 µM (active)
[7]
  AC50: 33.8 µM (active)
[8]
  AC50: < 0.26 µM (active)
[9]
  AC50: 2.24 µM (inconclusive)

## Cc1cccc2cc3c(N)c(C(=O)N4CCOCC4)sc3nc12
[10]
  EC50: > 3.39 µM (active)
[4]
  EC50: > 260 µM (inactive)

## COC(=O)CCCc1nc2ccccc2s1
[11]
  IC50: > 100 µM (not active)

## COc1cccc2c1C(=O)c1c(O)c3c(c(O)c1C2=O)C[C@@](O)(C(=O)CO)C[C@@H]3O[C@H]1C[C@H](N)[C@H](O)[C@H](C)O1 [DOXORUBICIN HYDROCHLORIDE]
[12]
  EC50: 0.518 µM (active)
[13]
  IC50: < 0.781 µM (active)
[14]
  EC50: 3.69 µM (active)
[15]
  AC50: 4.38 µM (active)
[16]
  AC50: 1.46 µM (active)
[17]
  IC50: > 80 µM (inactive)
[18]
  AC50: 32.2 µM (active)
[19]
  IC50: 21.2 µM (active)
[20]
  AC50: 43.4 µM (active)
[21]
  EC50: < 0.104 µM (active)
[22]
  AC50: 0.323 µM (active)
